{"source": "patent US20150030707A1", "about": "“Rhus Coriaria L. Extract For Use In The Treatment Of Hyperhidrosis” (BIOMEDICAL RESEARCH S.R.L., priority 2012, published 2015)", "origin": "cited, not measured here", "conditions": "in vivo"}
{"substance": "botulinum toxin", "values": [{"measurement": "duration of efficacy of the injections", "result": "5-6 months"}]}
